In one data set the target is α7 (Homo sapiens, UniProt P36544). Briefly: Target binding α7.
The target in another data set is T1, 5-HT3 (Homo sapiens, UniProt P46098).
T1 sequence (P46098 24-478): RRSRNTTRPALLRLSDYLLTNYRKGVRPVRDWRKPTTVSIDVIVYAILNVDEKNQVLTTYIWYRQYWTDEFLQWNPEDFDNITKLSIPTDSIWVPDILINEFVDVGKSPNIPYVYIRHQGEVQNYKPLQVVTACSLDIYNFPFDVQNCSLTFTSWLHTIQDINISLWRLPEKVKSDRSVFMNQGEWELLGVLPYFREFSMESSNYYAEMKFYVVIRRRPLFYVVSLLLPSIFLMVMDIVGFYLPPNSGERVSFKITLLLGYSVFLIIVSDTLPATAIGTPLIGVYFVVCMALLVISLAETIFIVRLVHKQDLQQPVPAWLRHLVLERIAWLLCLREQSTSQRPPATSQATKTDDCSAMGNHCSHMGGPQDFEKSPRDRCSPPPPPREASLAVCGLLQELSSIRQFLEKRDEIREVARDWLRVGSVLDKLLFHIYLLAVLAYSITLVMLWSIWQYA
In words: Target binding 5-HT3. Conditions: target binding.

For another data set, the target named is APP (Homo sapiens, UniProt P05067). In words: Target binding APP.
A further data set has as its system sAPPα in SH-SY5Y cells. Briefly: Primary screen, effect on sAPPα in SH-SY5Y cells (AlphaLISA). The format is cell-based, human. An excerpt:
(§1) Compound C41 was initially identified by screening a library of compounds in a series of steps. First compounds were screened in a primary screen to determine the effect on sAPPα in SH-SYSY cells (see, e.g., FIG. 4). Compounds that elicited an increase in sAPPα of at least 10% were subjected to a secondary screen in CHO-7W cells for their effect on sAPPα and Aβ (see, e.g., FIG. 5).
A general note: In Alpha technology, singlet oxygen from a donor bead excites a nearby acceptor bead.

Data set [1] concerns sAPPα, Aβ1-42 in CHO-7W cells. In words: Secondary screen, sAPPα and Aβ in CHO-7W cells. Format: cell-based.
From the text: as §1

The next data set has as its system AD model mouse. Briefly: In vivo study of C41 and F03 in an AD model mouse. An excerpt:
Panel A: Novel object preference; Panel B: Novel location preference; Panel C: sAPPα.
Panel A: sAPPβ; Panel B: the sAPPα/sAPPβ ratio.
Compounds meeting the initial screening criteria were then subjected to in vivo testing.

A short description of another data set: in vitro. The protocol:
The second batch of C41 was tested for plasma protein binding, ADME-tox screening (microsomal intrinsic clearance), and ADME-tox screening (CYP inhibition screen). PK in rats was determined to determine a dose of non-GLP Pharm-Tox screening. Additionally, acute toxicity in rats (pre-subchronic toxicity) and non-GLP subchronic toxicity was determined.

In a further data set the target is CYP3A4 (Homo sapiens, UniProt P08684). Briefly: CYP inhibition screen CYP3A4. Format: in vitro ADME. The settings on record: human.
The next data set addresses CYP2C9 (Homo sapiens, UniProt P11712). In words: CYP inhibition screen CYP2C9. The settings on record: human, read-out: CYP2C9 inhibition. The format is in vitro ADME.
The target in another data set is CYP2D6 (Homo sapiens, UniProt P10635). Briefly: CYP inhibition screen CYP2D6. The format is in vitro ADME. Conditions: human, read-out: CYP2D6 inhibition.
In another data set the target is CYP2C19 (Homo sapiens, UniProt P33261). Briefly: CYP inhibition screen CYP2C19. Format: in vitro ADME. The settings on record: human, read-out: CYP2C19 inhibition.
In another data set the target is T2, CYP1A2 (Homo sapiens, UniProt P05177).
T2 sequence (P05177 1-516): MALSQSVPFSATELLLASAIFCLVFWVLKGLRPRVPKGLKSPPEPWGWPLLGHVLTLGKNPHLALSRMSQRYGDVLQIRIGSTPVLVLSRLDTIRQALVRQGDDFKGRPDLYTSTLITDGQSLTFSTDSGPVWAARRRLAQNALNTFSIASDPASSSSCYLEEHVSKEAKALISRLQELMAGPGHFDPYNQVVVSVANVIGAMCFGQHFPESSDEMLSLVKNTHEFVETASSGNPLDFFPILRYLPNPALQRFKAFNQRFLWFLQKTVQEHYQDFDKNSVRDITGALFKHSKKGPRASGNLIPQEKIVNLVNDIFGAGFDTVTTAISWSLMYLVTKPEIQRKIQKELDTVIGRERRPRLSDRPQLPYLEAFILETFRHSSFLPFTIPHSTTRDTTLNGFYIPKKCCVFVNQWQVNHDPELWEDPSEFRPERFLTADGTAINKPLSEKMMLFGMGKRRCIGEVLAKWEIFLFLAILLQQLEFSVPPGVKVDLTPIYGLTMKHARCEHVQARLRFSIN
In words: CYP inhibition screen CYP1A2. The format is in vitro ADME. The settings on record: human, read-out: CYP1A2 inhibition.

A further data set has as its system AD mouse model. In words: Synaptic load, synaptophysin labeling of hippocampus. The format is in vivo. The protocol: FIG. 16 illustrates mechanistic confirmation studies for determination of synaptic load.
Mechanistic confirmation studies for determination of synaptic load were performed using antibody-labeling of synaptophysin with a green fluorescent tag. […] The improvements in NLR and NOR may be correlated to the restoration of synaptic load, increases in sAPPα or the sAPPα/sAPPβ ratio; increases in the sAPPα/Aβ1-42 ratio; decreases in the p-tau/tau ratio, and/or decreases in APPneo (c-terminal cleavage).

The conditions of data set [2]: reported; cited from earlier work.
The mark [3] stands for this setting: dog, microsomes, NADPH-Dependent CLint.
The mark [4] stands for this setting: dog, microsomes, NADPH-Free CLint.
The mark [5] stands for this setting: rat, microsomes, NADPH-Dependent CLint.
[6] abbreviates: rat, microsomes, NADPH-Free CLint.
[7] abbreviates: midazolam, read-out: CYP3A4 midazolam inhibition.
Setting [8] is: testosterone, read-out: CYP3A4 testosterone inhibition.

Structures are written as SMILES. Values after ≈ are worked out from the molar mass of the structure shown. “Also recorded” adds a separate entry of the source. Read-outs that look alike come from different tables or passages of the source.

What is called microsomal CLint is a measure of how fast metabolising enzymes remove a compound, apart from limits set by blood flow. High values mean faster metabolism, low ones greater metabolic stability. As a reminder, the half-life is the time needed for the level to fall by half in the phase considered. Usually inhibition stands for the change of the read-out against control, counted positive when it falls. As usually defined, the solubility is how much of the substance goes into solution per volume. Broadly, the fraction unbound is free concentration divided by total concentration. High values mean weak binding, low ones extensive binding.

Chain of CYP3A4 (P08684 whole entry): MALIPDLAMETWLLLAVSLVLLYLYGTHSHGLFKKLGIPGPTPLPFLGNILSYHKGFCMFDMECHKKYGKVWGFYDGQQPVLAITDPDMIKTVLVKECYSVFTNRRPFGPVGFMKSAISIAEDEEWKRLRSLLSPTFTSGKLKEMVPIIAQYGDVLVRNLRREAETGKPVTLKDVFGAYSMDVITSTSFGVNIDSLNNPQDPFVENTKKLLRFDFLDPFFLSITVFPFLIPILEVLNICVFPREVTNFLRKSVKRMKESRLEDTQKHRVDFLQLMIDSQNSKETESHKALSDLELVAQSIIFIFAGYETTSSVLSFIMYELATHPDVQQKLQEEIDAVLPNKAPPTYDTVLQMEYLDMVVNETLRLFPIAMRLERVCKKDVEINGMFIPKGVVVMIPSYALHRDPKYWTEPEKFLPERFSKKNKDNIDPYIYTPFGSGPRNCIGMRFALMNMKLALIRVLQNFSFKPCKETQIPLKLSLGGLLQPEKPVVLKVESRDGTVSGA
Chain of CYP2C9 (P11712 whole entry): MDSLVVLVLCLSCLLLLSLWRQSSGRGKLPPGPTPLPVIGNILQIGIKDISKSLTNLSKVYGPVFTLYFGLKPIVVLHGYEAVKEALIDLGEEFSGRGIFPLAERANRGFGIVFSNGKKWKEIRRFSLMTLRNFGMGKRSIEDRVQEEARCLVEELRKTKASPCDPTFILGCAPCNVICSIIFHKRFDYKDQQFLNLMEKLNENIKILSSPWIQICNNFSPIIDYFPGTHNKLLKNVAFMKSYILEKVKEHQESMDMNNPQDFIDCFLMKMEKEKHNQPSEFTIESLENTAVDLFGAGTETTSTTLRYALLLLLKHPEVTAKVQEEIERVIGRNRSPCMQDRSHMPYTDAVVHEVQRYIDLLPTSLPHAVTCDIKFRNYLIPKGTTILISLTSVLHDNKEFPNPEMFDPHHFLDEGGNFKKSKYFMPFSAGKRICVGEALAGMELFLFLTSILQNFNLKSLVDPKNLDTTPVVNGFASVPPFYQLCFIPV
Chain of CYP2C19 (P33261 whole entry): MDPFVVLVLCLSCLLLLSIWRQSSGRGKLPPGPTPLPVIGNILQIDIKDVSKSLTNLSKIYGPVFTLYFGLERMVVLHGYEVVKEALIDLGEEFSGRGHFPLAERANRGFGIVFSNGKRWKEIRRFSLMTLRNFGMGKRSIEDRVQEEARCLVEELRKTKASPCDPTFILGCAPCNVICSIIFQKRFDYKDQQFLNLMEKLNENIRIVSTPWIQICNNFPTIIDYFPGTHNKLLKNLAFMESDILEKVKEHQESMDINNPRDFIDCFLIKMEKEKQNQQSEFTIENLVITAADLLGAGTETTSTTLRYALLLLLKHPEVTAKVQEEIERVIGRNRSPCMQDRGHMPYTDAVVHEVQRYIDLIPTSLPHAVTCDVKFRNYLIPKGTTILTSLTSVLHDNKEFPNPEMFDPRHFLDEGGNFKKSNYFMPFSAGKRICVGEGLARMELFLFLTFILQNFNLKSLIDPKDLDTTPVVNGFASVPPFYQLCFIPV
Chain of CYP2D6 (P10635 whole entry): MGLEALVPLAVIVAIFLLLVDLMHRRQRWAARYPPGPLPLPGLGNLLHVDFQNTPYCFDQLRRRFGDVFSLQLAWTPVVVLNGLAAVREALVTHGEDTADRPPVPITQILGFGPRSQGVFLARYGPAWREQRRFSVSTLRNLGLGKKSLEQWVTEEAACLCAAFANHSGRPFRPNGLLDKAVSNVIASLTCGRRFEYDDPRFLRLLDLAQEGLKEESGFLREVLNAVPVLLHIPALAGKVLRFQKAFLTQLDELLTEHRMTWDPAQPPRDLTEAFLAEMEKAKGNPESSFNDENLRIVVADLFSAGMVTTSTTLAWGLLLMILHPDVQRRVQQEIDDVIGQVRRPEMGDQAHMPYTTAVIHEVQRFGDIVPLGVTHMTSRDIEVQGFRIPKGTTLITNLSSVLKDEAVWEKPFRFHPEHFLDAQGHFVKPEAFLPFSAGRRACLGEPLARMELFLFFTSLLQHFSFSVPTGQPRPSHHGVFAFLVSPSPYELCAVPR
Chain of APP (P05067 18-770, species assumed): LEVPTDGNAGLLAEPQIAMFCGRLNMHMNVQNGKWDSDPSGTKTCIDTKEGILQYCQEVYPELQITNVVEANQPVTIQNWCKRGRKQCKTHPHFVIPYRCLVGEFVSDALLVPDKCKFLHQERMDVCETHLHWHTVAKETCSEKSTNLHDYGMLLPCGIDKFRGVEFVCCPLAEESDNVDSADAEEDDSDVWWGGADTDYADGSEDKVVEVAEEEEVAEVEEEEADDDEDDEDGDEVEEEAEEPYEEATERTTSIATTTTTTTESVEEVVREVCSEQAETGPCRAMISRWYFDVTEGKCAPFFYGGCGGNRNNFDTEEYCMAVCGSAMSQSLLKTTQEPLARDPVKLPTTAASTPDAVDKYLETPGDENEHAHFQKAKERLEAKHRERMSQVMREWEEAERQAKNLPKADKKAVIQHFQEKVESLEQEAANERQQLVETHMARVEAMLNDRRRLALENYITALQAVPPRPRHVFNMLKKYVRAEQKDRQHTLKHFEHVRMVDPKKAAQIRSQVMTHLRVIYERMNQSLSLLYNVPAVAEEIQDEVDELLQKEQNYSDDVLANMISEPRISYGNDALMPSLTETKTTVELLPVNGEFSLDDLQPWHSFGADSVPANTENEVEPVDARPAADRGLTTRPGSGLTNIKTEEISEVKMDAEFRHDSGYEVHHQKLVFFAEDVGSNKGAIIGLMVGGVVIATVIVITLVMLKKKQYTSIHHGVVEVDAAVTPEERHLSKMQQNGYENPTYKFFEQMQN
Chain of α7 (P36544 23-502): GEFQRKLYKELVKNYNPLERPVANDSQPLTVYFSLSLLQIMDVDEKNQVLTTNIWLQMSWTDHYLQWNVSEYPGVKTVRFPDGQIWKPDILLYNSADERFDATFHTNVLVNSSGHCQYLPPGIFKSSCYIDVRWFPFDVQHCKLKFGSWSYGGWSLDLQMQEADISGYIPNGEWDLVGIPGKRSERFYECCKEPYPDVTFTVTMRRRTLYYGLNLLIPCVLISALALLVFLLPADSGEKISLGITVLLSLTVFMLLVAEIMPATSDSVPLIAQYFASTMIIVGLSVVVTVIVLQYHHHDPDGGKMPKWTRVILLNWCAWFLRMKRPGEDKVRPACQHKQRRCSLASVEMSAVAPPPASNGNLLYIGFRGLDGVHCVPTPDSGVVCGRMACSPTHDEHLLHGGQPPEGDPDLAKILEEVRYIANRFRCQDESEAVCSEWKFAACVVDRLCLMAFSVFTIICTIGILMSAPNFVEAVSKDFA

Take `CN1[C@@H]2CC[C@H]1C[C@@H](OC(=O)c1c[nH]c3ccccc13)C2` [Compound F03, tropisetron, reference compound]: at α7, the “Target α7” value came out at 450 nM. Also, the “Target 5-HT3” value on 5-HT3 stood at 3 nM. Further, the “Target APP” value at APP was in the range of 1 to 10 µM. The “Primary Screen (SH-SY5Y) sAPPα” value in the data set with sAPPα in SH-SY5Y cells (↑ increase) was “↑>10%”. In data set [1] (↑ increase), the “Secondary Screen (CHO-7W) sAPPα” value is “↑>10%”. Also, the “Secondary Screen (CHO-7W) sAppα/Aβ” value in data set [1] (↑ increase of ratio) was “↑>30%”. The “Secondary Screen (CHO-7W) Aβ1-42” value in [1] (↓ decrease) is “↓>10%”. The “Aβ40/42 ratio in vivo” value in the data set with AD model mouse is listed as “not changed”. In addition, the sAPPα in vivo entry with AD model mouse was “increased significantly”. In the data set on AD model mouse, the “sAPPα/Aβ1-42 ratio in vivo” value was “not increased”. In addition, the microsomal CLint at 1 μM in “in vitro” (setting [3]) was 43.5 µL/min/mg; in “in vitro” (setting [4]), less than 9.6 µL/min/mg; in “in vitro” (human, microsomes) it was less than 9.6 µL/min/mg; in “in vitro” (setting [5]), 367 µL/min/mg; in the data set “in vitro” (setting [6]), less than 9.6 µL/min/mg. Further, the half-life at 1 μM in “in vitro” (dog, microsomes, NADPH-Dependent T1/2) was 0.885 h; in the data set “in vitro” (dog, microsomes, NADPH-Free T1/2) it was greater than 4 h; in “in vitro” (human, microsomes) it was greater than 4 h; in the data set “in vitro” (rat, microsomes, NADPH-Dependent T1/2) it was 0.105 h; in “in vitro” (rat, microsomes, NADPH-Free T1/2), greater than 4 h. For the same molecule, the “NADPH-Free CLint” value in the data set “in vitro” (human, microsomes, 1 μM) is less than 9.6 µL/min/mg. For the same molecule, the “NADPH-Free T1/2” value in the data set “in vitro” (human, microsomes, 1 μM) was greater than 4 h. Further, the inhibition at 10 µM on CYP3A4 (setting [7]) worked out at 0%; at CYP3A4 (setting [8]) it was 0.63%; at CYP2C9 (10 μM) it was 15.9%; on CYP2D6 (10 μM), 17.4%; on CYP2C19 (10 μM), 6.4%; at CYP1A2 (10 μM), 1%. In addition, the inhibition at 30 µM on CYP3A4 (setting [7]) amounted to 6.6%; at CYP3A4 (setting [8]), 10.5%; at CYP2C9 (30 μM), 23.3%; at CYP2D6 (30 μM), 38%; on CYP2C19 (30 μM) it was 0%; at CYP1A2 (30 μM), 1%. For the same molecule, the “synaptic load / synaptic density in hippocampus” value in the data set on AD mouse model is “restore synaptic density; also recorded: restored synaptic load”. The Plasma binding in [2] was 70%. The same molecule yielded a solubility in “Solubility in water” of 100 mM (≈ 28.4 mg/mL).

As for `CC(=O)CC(c1ccccc1)c1c(O)c2ccccc2oc1=O` (centres unmarked) [warfarin], the microsomal CLint at 1 μM in the data set “in vitro” (setting [3]) is less than 9.6 µL/min/mg; in “in vitro” (setting [4]) it was less than 9.6 µL/min/mg; in “in vitro” (human, microsomes), less than 9.6 µL/min/mg; in “in vitro” (setting [5]), less than 9.6 µL/min/mg; in the data set “in vitro” (setting [6]) it was less than 9.6 µL/min/mg. The recovery in the data set “in vitro” (human) is 99.7%. In addition, the “NADPH-Free CLint” value in “in vitro” (human, microsomes, 1 μM) is less than 9.6 µL/min/mg.

On to `CN1C2CC[C@H]1C[C@@H](OC(=O)c1c[nH]c3cc(F)ccc13)C2.Cl` [C41 HCl, (1R,3R,5S)-8-methyl-8-azabicyclo[3.2.1]octan-3-yl 6-fluoro-1H-indole-3-carboxylate hydrochloride], for which, in the data set on sAPPα in SH-SY5Y cells (1 μm, 24 hours), the “effect on sAPPα in SH-SY5Y cells” value is “increase sAPPα similar to C41 (first batch) and to F03”.

Regarding `CC(C)NCC(O)COc1cccc2ccccc12` (centres unmarked) [propranolol, reference compound], in the data set “in vitro” (human, plasma), the “Mean Plasma Fraction Bound” value came to 81.6% and the unbound share (fraction unbound) was 0.184.

Values taken from patent US20190134000A1, “COMPOUNDS TO PROMOTE NORMAL PROCESSING OF APP” (Buck Institute for Research on Aging, priority 2016, published 2019).
